Patent US20060241114A1, “Derivatives of azasugars as anticancer agents” (priority 2003, published 2006)

Legend:
[1] = tested on: MCF7ADR (adriamycin resistant breast adenocarcinoma); test: In vitro growth inhibition screen (sulphorhodamine B), MCF7ADR; type: cell-based, human; conditions: MCF7ADR cells, incubated for 48 hours, sulphorhodamine B dye; read-out: GI50 (concentration which inhibits the cell growth by 50%), MCF7ADR Adriamycin Resistant Breast adenocarcinoma
In short: (§1)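 GI50 values come from a 48 h sulphorhodamine B growth assay in RPMI 1640 containing 10% fetal calf serum, with test concentrations spanning ten-fold dilutions from ≧100 μM to 10 nM. Doxorubicin served as positive control.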

[2] = tested on: MCF7 (breast adenocarcinoma); test: In vitro growth inhibition screen (sulphorhodamine B), MCF7; type: cell-based, human; conditions: MCF7 cells, incubated for 48 hours, sulphorhodamine B dye; read-out: GI50 (concentration which inhibits the cell growth by 50%), MCF7 Breast adenocarcinoma
In short: as §1

[3] = tested on: U251 (human glioblastoma); test: In vitro growth inhibition screen (sulphorhodamine B), U251; type: cell-based; conditions: U251 cells, incubated for 48 hours, sulphorhodamine B dye; read-out: GI50 (concentration which inhibits the cell growth by 50%), U251 Human glioblastoma astrocytoma
In short: as §1

[4] = tested on: DU145 (prostate carcinoma); test: In vitro growth inhibition screen (sulphorhodamine B), DU145; type: cell-based, human; conditions: DU145 cells, incubated for 48 hours, sulphorhodamine B dye; read-out: GI50 (concentration which inhibits the cell growth by 50%), DU145 Prostate carcinoma
In short: as §1

LOX (melanoma) = test: In vitro growth inhibition screen (sulphorhodamine B), LOX; type: cell-based, human; conditions: LOX cells, incubated for 48 hours, sulphorhodamine B dye; read-out: GI50 (concentration which inhibits the cell growth by 50%), LOX Melanoma
In short: as §1

[5] = tested on: HT29 (colorectal adenocarcinoma); test: In vitro growth inhibition screen (sulphorhodamine B), HT29; type: cell-based, human; conditions: HT29 cells, incubated for 48 hours, sulphorhodamine B dye; read-out: GI50 (concentration which inhibits the cell growth by 50%), HT29 Colorectal adenocarcinoma
In short: as §1

| GI50 [1] | GI50 [2] | GI50 [3] | GI50 [4] | GI50 (LOX (melanoma)) | GI50 [5] | SMILES |
| --- | --- | --- | --- | --- | --- | --- |
| 25.3 µM | 8.1 µM | 12.6 µM | 12.2 µM | 3.8 µM | 1.9 µM | CCCN1C(=O)C(OCc2ccccc2)C(OCc2ccccc2)C(OCc2ccccc2)C1CNC(=O)CN1CCN(C)CC1 [Compound No. 59, 2,3,4-Tri-O-benzyl-6-N-{2-[N-(methyl)piperazin-1-yl]acetyl}-N-propyl-D-gluco-δ-lactam] |
| 281 µM | 101 µM | 190 µM | 108 µM | 158 µM | 258 µM | CCCN1C(=O)[C@H](OCc2ccccc2)[C@@H](OCc2ccccc2)[C@H](OCc2ccccc2)[C@H]1CNC(=O)Cn1ncn(-c2ccc(N3CCN(c4ccc(Cl)cc4)CC3)cc2)c1=O [Compound No. 60, 2,3,4-Tri-O-benzyl-6-N-{2-[(4-(4-(chlorophenyl)-piperazin-1-yl)-phenyl)-3(2H,4H)-1,2,4-triazol-3-onyl]acetyl}-H-propyl-D-gluco-δ-lactam] |
| > 618 µM | > 618 µM | > 618 µM | 195 µM | > 618 µM | > 618 µM | CCCN1C(=O)[C@H](OCc2ccccc2)[C@@H](OCc2ccccc2)[C@H](OCc2ccccc2)[C@H]1CNC(=O)CN1C[C@H](OCc2ccccc2)[C@@H](OCc2ccccc2)[C@H](OCc2ccccc2)[C@H]1COCc1ccccc1 [Compound No. 61, 2,3,4-Tri-O-benzyl-6-N-{2-[2,3,4,6-tetra-O-benzyl-1,5-dideoxy-1,5-imino-glucitolyl]acetyl}-N-propyl-D-gluco-δ-lactam] |
| > 402 µM | > 402 µM | 30 µM | 24.3 µM | 37.7 µM | 24.9 µM | CCCN1C(=O)[C@H](OCc2ccccc2)[C@@H](OCc2ccccc2)[C@H](OCc2ccccc2)[C@H]1CNC(=O)CN1CCN(c2c(CC)cccc2CC)CC1 [Compound No. 62, 2,3,4-Tri-O-benzyl-6-N-{2-[N-(2,6-diethylphenyl)piperazinyl]acetyl}-N-propyl-D-gluco-δ-lactam] |
| 246 µM | 66.8 µM | 117 µM | 60.6 µM | 55.3 µM | 42 µM | CCCN1C(=O)[C@H](OCc2ccccc2)[C@@H](OCc2ccccc2)[C@H](OCc2ccccc2)[C@H]1CNC(=O)CN1C(=O)c2ccccc2C1=O [Compound No. 63] |
| 4.3 µM | 1.5 µM | 3.7 µM | 12.5 µM | 6.3 µM | 8.1 µM | CCCN1C(=O)[C@H](OCc2ccccc2)[C@@H](OCc2ccccc2)[C@H](OCc2ccccc2)[C@H]1CNC(=O)CN1CCN(c2ccc(Cl)cc2)CC1 [Compound No. 64, 2,3,4-Tri-O-benzyl-6-N-{2-[4-(4-chlorophenyl)piperazinyl]acetyl}-N-propyl-D-gluco-δ-lactam] |
| 3.5 µM | 2 µM | 3.4 µM | 13.1 µM | 4 µM | 5.6 µM | CCCN1C(=O)[C@H](OCc2ccccc2)[C@@H](OCc2ccccc2)[C@H](OCc2ccccc2)[C@H]1CNC(=O)CN1CCN(c2cccc(C(F)(F)F)c2)CC1 [Compound No. 65, 2,3,4-Tri-O-benzyl-6-N-{2-[4-(3-(trifluoromethyl)phenyl)piperazin-1-yl]acetyl}-N-propyl-D-gluco-δ-lactam] |
| 196 µM | 124 µM | 142 µM | 82.9 µM | 58.2 µM | 149 µM | CCCN1C(=O)[C@H](O)[C@@H](O)[C@H](O)[C@H]1CNC(=O)Cn1cncn1 [Compound No. 66, N-Propyl-6-{2-[triazolyl]-acetyl}-D-gluco-δ-lactam] |
| 27.7 µM | 32.4 µM | 22 µM | 39 µM | 48.2 µM | 14.1 µM | CCCN1C(=O)[C@H](O)[C@@H](O)[C@H](O)[C@H]1CNC(=O)CN1CCN(C)CC1 [Compound No. 68, 6-N-{2-[(N-Methyl)piperazinyl]acetyl}-N-propyl-D-gluco-δ-lactam] |
| 275 µM | 208 µM | 282 µM | 340 µM | 146 µM | 244 µM | O[C@H]1[C@H](O)[C@@H](Cn2cncn2)NC[C@@H]1O [Compound No. 72, 1,5-Dideoxy-1,5-imino-6-triazolyl-glucitol] |
| 291 µM | 320 µM | 506 µM | 267 µM | 247 µM | 470 µM | CCCN1C[C@H](O)[C@@H](O)[C@H](O)[C@H]1Cn1ccnn1 [Compound No. 73, 1,5-Dideoxy-1,5-imino-N-propyl-6-triazolyl glucitol] |
| 11.6 µM | 1.6 µM | 8.8 µM | 25.7 µM | 16.9 µM | 18.4 µM | CCCN1C(=O)[C@H](OCc2ccccc2)[C@@H](OCc2ccccc2)[C@H](OCc2ccccc2)[C@H]1CNC(=O)N1CCN(c2ccc(Cl)cc2)CC1 [Compound No. 75, 2,3,4-Tri-O-benzyl-6-N-{4-[4-chlorophenyl]piperazinylcarboxamido}-N-propyl-D-gluco-δ-lactam] |
| 90.7 µM | 38.6 µM | 25.7 µM | 45.2 µM | 40.9 µM | 28.6 µM | CCCN1C(=O)[C@H](OCc2ccccc2)[C@@H](OCc2ccccc2)[C@H](OCc2ccccc2)[C@H]1CNC(=O)N1CCN(c2ccc(F)cc2)CC1 [Compound No. 76, 2,3,4-Tri-O-benzyl-6-N-{4-[4-fluorophenyl]piperazinylcarboxamido}-N-propyl-D-gluco-δ-lactam] |
| 69.1 µM | 56.1 µM | 28.6 µM | 49.4 µM | 29.5 µM | 17.5 µM | CCCN1C(=O)[C@H](OCc2ccccc2)[C@@H](OCc2ccccc2)[C@H](OCc2ccccc2)[C@H]1CNC(=O)N1CCc2ccccc21 [Compound No. 77, 2,3,4-Tri-O-benzyl-6-N-{1,2-dihydro(2H)-indolylcarboxamido}-N-propyl-D-gluco-δ-lactam] |
| 77 µM | 102 µM | > 250 µM | 70.1 µM | 11.9 µM | 49.5 µM | C=CCN1C(=O)C(OCc2ccccc2)C(OCc2ccccc2)C(OCc2ccccc2)C1Cn1ncn(-c2ccc(Cl)cc2)c1=O [Compound No. 81, 2,3,4-Tri-O-benzyl-6-[4-chlorophenyl-3(2H,4H)-1,2,4-triazol-3-onyl]-N-allyl-D-gluco-δ-lactam] |
| 17.5 µM | 9.9 µM | 12.5 µM | 24.8 µM | 8.5 µM | 23.5 µM | C=CCN1C(=O)C(OCc2ccccc2)C(OCc2ccccc2)C(OCc2ccccc2)C1CN1C(=O)CCCC1=O [Compound No. 82, N-Allyl-2,3,4-tri-O-benzyl-6-(2,6-diketopiperidino)-D-gluco-δ-lactam] |
| 6.7 µM | 13.1 µM | > 140 µM | 55.2 µM | 51.4 µM | 80.1 µM | C=CCN1C(=O)[C@H](OCc2ccccc2)[C@@H](OCc2ccccc2)[C@H](OCc2ccccc2)[C@H]1CN1C(=O)c2ccccc2C1=O [Compound No. 83, N-Allyl-2,3,4-tri-O-benzyl-6-(1H-isoindole-1,3(2H)-diketo)-D-gluco-δ-lactam] |

| SMILES | GI50 [1] | GI50 [2] | GI50 [3] | GI50 [4] | GI50 (LOX (melanoma)) | GI50 [5] |
| --- | --- | --- | --- | --- | --- | --- |
| C=CCN1C(=O)[C@H](OCc2ccccc2)[C@@H](OCc2ccccc2)[C@H](OCc2ccccc2)[C@H]1Cn1ccnn1 [Compound No. 69, N-Allyl-2,3,4-tri-O-benzyl-6-triazolyl-D-gluco-δ-lactam] | 39.4 µM | 47.8 µM | 37.9 µM | 51 µM | 47.4 µM | 31.6 µM |
| CCCN1C(=O)[C@H](O)[C@@H](O)[C@H](O)[C@H]1Cn1cncn1 [Compound No. 70, 6-Triazolyl-N-propyl-D-gluco-δ-lactam] | 894 µM | 340 µM | 516 µM | 252 µM | 232 µM | 302 µM |
| CCCN1C(=O)[C@H](OCc2ccccc2)[C@@H](OCc2ccccc2)[C@H](OCc2ccccc2)[C@H]1CNC(=O)Oc1ccccc1 [Compound No. 74, 2,3,4-Tri-O-benzyl-6-N-[phenyl carbamate]-N-propyl-D-gluco-δ-lactam] | 26.1 µM | 25.4 µM | 34.2 µM | 90.9 µM | 51.8 µM | 10.7 µM |
| CCCN1C(=O)[C@H](OCc2ccccc2)[C@@H](OCc2ccccc2)[C@H](OCc2ccccc2)[C@H]1CNC(=O)N1CC2C(C1)C2NC(C)=O (stereo partly drawn) [Compound No. 79, 2,3,4-Tri-O-benzyl-6-N-{(1α,5α,6α)-6-acetylamino-azabicyclo[3.1.0]hexylcarboxamido}-N-propyl-D-gluco-δ-lactam] | 17.9 µM | 18.2 µM | 15.5 µM | 18.9 µM | 7.4 µM | 21.8 µM |
